# Measurements: ChEMBL document CHEMBL1201862, “PubChem BioAssay data set” (2004)
# Active and inactive are the calls of the source.
# Key:
# H9c2 = assay: cells; type: functional, cell-based; details: Rattus norvegicus, H9c2, Myocardium;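 note: confirmatory concentration-response retest of ultra-high-throughput screening hits for modulation of myocardial damage; cell death induced by hydrogen peroxide oxidative stress; compound pretreatment for 60 min then peroxide exposure for 2 h; potency is for protecting the cells against peroxide damage rather than for killing them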
# X-box-binding protein 1 = biological target: T1, X-box-binding protein 1 (Homo sapiens, UniProt P17861); type: functional, Cricetulus griseus;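 note: confirmatory dose-response counter-screen serving a CHOP assay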
# T1 sequence (P17861 whole entry): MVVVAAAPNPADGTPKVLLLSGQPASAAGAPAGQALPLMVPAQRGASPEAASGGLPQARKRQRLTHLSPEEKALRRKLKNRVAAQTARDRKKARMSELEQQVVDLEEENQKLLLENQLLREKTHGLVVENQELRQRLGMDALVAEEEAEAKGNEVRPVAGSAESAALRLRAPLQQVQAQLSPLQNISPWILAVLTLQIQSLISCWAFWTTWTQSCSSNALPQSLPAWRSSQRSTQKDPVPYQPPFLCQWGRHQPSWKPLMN
# [1] = biological target: DNA damage-inducible transcript 3 protein (Mus musculus, UniProt P35639); type: functional, Cricetulus griseus
# [2] = NIH3T3 cell viability loss – ATP luminescence, mouse fibroblasts, counter-screen, dose response (AID 2010); type: functional, cell-based;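 note: cells exposed to compound for about 90 hours before reading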
# [3] = biological target: ATP-dependent molecular chaperone HSP82 (Candida albicans (strain WO-1) (Yeast), UniProt C4YTQ8); assay: steroid-induced GRE reporter decrease in yeast – S. cerevisiae, luminescence, Hsp90 inhibitor project, dose response (AID 2400); type: functional, cell-based;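 note: beta-galactosidase luminescence from glucocorticoid response element reporter as proxy for Hsp90 function; inhibitor potency where signal loss means Hsp90 inhibition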
# Nonstructural protein 1 = Nonstructural protein 1 (Influenza A virus, UniProt Q194T2); type: functional, Influenza A virus (A/California/07/2009(H1N1))
# [4] = biological target: T2, Serine/threonine-protein phosphatase (Candida dubliniensis (strain CD36 / CBS 7987 / NCPF 3949 / NRRLY-17841) (Yeast), UniProt B9W6M3); assay: blockers of CaCl2-induced CDRE-lacZ signaling – S. cerevisiae, luminescence, secondary, dose response (AID 2388); type: functional, cell-based;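 note: yeast reporter cells carrying a calcineurin-responsive lacZ construct stimulated with calcium chloride; luminescent beta-galactosidase reporter signal in whole cells rather than isolated phosphatase activity; potency for inhibition where a drop in reporter signal means calcineurin blockade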
# T2 sequence (B9W6M3 whole entry): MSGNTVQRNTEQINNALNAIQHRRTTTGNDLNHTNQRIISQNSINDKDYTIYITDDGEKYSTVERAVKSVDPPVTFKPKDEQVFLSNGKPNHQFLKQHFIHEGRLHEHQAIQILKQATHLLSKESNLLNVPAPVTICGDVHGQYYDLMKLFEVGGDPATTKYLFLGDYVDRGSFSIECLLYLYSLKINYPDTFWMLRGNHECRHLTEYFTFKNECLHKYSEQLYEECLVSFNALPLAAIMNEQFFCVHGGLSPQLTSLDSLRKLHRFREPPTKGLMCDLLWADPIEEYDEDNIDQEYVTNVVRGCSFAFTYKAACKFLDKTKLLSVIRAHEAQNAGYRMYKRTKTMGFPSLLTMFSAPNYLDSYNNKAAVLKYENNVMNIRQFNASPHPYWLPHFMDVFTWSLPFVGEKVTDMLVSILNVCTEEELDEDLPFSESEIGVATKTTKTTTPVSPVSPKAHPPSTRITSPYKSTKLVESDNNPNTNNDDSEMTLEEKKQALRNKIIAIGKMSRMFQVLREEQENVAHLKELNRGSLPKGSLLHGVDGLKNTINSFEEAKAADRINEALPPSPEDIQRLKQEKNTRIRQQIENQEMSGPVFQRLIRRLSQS
# Streptococcus = assay: GAS UMAA2166 growth inhibition – luminescence, BacTiterGlo, counter-screen for streptokinase expression inhibitor project, dose response (AID 1915); type: functional, organism-based;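 note: potency for reduction of bacterial viability or growth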
# Hexokinase-1 = biological target: T3, Hexokinase-1 (Homo sapiens, UniProt P19367); assay: HK1 enzyme activation by HKDC1 hits – biochemical, selectivity assay for HKDC1 activator project, dose response (AID 504762); type: functional
# T3 sequence (P19367 whole entry): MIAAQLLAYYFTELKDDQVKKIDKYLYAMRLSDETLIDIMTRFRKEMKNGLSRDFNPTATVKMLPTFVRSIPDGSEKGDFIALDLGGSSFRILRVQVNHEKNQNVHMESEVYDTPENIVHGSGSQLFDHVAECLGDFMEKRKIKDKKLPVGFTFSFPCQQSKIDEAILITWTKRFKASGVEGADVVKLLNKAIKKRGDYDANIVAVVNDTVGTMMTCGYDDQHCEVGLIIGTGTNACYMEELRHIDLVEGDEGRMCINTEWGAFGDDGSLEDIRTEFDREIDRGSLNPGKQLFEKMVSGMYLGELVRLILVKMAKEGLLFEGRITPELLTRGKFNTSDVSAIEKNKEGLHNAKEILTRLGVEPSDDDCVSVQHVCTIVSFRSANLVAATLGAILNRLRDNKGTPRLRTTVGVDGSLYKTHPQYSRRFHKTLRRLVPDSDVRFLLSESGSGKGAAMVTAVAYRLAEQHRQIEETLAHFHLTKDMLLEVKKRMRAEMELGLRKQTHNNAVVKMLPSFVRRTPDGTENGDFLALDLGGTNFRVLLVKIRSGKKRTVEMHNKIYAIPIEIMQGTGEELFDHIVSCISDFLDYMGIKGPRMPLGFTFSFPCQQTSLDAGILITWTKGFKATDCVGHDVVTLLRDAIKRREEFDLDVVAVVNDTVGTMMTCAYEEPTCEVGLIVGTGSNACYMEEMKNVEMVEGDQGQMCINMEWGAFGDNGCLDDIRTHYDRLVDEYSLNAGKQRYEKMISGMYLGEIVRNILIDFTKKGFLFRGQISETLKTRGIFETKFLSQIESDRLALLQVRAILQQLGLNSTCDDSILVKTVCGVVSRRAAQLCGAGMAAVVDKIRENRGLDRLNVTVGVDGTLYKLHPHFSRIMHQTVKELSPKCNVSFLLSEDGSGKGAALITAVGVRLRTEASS
# [5] = loss of viability in HepG2 cells – cell-based, CellTiter-Glo, cherry-picked, cytotoxicity control for Shn3 inhibitor project, dose response (AID 624134); type: functional
# [6] = fluconazole-exposed Candida albicans growth modulators – fluorescence, retest, confirmation (AID 2467); type: functional, cell-based
# [7] = reduction of Shn3 3'UTR-driven luciferase in osteoblasts – cell-based, Clone20 osteoblasts, firefly luciferase, cherry-picked, dose response (AID 624132); type: functional;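 note: firefly luciferase luminescence from reporter carrying the Shn3 3'UTR in osteoblasts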
# HEK293 = assay: EBV LMP1 TES2 canonical NF-kB signalling blockers – cell-based, HEK293, luciferase, cherry-pick, dose response (AID 588343); type: functional; details: Homo sapiens
# [8] = NIH-3T3 fibroblast cytotoxicity, dose response, cytotoxicity control, cell-based, fluorescence, Alamar Blue, secondary assay (AID 2327); type: functional;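 note: NIH-3T3 mouse fibroblasts cultured with fluconazole at 8 µg/mL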
# INS1 = assay: INS-1E survival protection against cytokine death – cell-based, luminescence, retest, dose response (AID 449756); type: functional; details: Rattus norvegicus;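 note: cell death triggered by IL-1 beta plus TNF-alpha plus IFN-gamma mixture; protective hits raise ATP signal compared with cytokine alone wells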
# [9] = Trypanosoma cruzi growth suppression in host cells – NIH3T3 host cells, beta-gal luminescence, confirmation (AID 2044); type: functional, cell-based;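 note: intracellular parasites grown in NIH/3T3 mouse fibroblasts as host cells; luminescent beta-galactosidase reporter signal from transgenic T. cruzi replicating inside host cells; inhibitors lower the luminescence signal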
# Hexokinase HKDC1 = biological target: T4, Hexokinase HKDC1 (Homo sapiens, UniProt Q2TB90); assay: activation of HKDC1 glucose phosphorylation – biochemical, W721R variant, dose response (AID 504730); type: functional
# T4 sequence (Q2TB90 whole entry): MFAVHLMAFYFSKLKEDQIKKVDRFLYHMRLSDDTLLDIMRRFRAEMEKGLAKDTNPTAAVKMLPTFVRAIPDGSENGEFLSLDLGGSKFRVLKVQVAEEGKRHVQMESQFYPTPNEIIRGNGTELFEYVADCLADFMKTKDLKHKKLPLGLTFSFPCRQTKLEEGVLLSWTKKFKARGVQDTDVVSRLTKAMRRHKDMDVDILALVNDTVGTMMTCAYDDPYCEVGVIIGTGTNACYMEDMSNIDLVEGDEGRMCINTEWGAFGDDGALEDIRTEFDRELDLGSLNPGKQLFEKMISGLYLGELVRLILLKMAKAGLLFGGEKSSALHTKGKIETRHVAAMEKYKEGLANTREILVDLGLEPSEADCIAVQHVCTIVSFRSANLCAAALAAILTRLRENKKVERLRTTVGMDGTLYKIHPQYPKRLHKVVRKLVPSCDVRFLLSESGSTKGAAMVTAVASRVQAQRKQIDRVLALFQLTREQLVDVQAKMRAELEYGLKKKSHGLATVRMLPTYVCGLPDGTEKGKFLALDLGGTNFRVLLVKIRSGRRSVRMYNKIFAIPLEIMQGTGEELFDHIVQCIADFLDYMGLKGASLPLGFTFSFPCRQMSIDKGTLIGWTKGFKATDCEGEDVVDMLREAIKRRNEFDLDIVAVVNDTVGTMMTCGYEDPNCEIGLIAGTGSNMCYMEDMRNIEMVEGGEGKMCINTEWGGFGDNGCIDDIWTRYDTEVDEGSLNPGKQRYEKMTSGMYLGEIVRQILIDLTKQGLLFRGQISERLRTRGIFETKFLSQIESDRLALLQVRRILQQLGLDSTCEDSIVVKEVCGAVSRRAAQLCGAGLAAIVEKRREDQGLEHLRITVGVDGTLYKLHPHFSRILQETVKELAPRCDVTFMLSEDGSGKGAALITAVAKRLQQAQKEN
# [10] = mammalian cell viability loss – Alamar Blue, dry powder, cytotoxicity control for antifungal single agent project, dose response (AID 602188); type: functional, cell-based
# [11] = test system: Streptococcus sp. 'group A'; assay: Streptococcus pyogenes SK(-)GAS viability under kanamycin – luminescence, BacTiterGlo, confirmation, counter-screen for streptokinase expression inhibitor project, dose response (AID 1900); type: functional, organism-based
# [12] = non-specific 3'UTR reporter inhibition in Clone20-Shn3RL – cell-based, Renilla luciferase, cherry-picked, counter-screen for Shn3 inhibitor project, dose response (AID 624133); type: functional
# cells [13] = type: functional, cell-based
# cells [14] = type: functional, cell-based; remark: listed apart in the source
# Hexokinase = Hexokinase (Trypanosoma brucei, UniProt Q38C41); assay: Confirmation assay for inhibitors of Trypanosoma brucei hexokinase 1-Analogue-first series. [Related pubchem assays (depositor defined):AID1430, AID1632, AID2516, AID2560, AID2579, AID2600, AID449725, AID492951]; type: functional
# [15] = biological target: T5, G-protein coupled receptor 55 (Homo sapiens, UniProt Q9Y2T6); assay: selective activators of receptor GPR55 – imaging, U2OS cells, beta-arrestin-GFP redistribution, primary screen (AID 1961); type: functional
# Vero [16] = assay: cells; type: functional; details: Chlorocebus sabaeus
# [17] = Luminescence Cell-Based Dose Retest to Confirm Inhibitors of Cancer Stem Cells. [Related pubchem assays (depositor defined):AID2717, AID2721]; type: functional, Homo sapiens; details: Homo sapiens
# Vero [18] = assay: cells; type: functional, cell-based; details: Chlorocebus sabaeus
# [19] = biological target: T6, Sphingosine 1-phosphate receptor 4 (Homo sapiens, UniProt O95977); assay: Late-stage fluorescence dose response cell-based assay to identify agonists of the Sphingosine 1-Phosphate Receptor 4 (S1P4): purchased compounds EC50. [Related pubchem assays (depositor defined):AID1509, AID1523, AID1563, AID1686, AID1701, AID1801]; type: functional
# T6 sequence (O95977 whole entry): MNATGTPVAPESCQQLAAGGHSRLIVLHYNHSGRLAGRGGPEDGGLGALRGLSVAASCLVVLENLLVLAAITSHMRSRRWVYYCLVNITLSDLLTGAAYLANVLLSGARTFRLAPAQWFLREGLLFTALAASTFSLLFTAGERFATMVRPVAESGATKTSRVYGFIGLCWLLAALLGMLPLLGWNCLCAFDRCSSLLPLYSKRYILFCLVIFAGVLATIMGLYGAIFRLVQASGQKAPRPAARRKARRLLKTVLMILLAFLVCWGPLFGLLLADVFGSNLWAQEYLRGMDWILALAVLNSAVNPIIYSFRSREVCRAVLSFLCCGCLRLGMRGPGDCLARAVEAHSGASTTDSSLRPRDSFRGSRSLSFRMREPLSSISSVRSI
# [20] = biological target: T5, G-protein coupled receptor 55; assay: inhibition of LPI-stimulated GPR55 beta-arrestin translocation – imaging, U2OS, beta-arrestin-GFP, LPI agonist, primary screen (AID 2013); type: functional;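 note: antagonist potency measured as reduced agonist-driven arrestin aggregation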
# T5 sequence (Q9Y2T6 whole entry): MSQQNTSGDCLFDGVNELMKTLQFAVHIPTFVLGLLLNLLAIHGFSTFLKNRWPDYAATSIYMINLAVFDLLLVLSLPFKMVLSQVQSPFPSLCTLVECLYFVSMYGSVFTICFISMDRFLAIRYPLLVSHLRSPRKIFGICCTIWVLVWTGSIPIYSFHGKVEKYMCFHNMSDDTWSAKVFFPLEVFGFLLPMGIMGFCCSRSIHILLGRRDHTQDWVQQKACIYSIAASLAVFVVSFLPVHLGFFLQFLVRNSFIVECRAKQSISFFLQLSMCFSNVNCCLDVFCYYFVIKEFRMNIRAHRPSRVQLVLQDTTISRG
# Sequence of Nonstructural protein 1 (Q194T2 whole entry): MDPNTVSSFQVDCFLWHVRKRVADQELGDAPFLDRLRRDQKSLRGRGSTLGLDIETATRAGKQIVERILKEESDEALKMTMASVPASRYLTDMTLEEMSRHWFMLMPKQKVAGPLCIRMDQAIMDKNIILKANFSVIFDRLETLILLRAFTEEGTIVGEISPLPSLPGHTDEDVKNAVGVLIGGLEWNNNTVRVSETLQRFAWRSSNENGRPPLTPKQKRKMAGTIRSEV
# Sequence of DNA damage-inducible transcript 3 protein (P35639 whole entry): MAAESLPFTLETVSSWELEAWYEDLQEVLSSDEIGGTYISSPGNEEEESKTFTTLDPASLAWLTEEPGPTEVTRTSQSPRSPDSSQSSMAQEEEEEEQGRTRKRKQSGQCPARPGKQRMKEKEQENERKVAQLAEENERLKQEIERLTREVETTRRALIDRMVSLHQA
# Sequence of ATP-dependent molecular chaperone HSP82 (C4YTQ8 whole entry): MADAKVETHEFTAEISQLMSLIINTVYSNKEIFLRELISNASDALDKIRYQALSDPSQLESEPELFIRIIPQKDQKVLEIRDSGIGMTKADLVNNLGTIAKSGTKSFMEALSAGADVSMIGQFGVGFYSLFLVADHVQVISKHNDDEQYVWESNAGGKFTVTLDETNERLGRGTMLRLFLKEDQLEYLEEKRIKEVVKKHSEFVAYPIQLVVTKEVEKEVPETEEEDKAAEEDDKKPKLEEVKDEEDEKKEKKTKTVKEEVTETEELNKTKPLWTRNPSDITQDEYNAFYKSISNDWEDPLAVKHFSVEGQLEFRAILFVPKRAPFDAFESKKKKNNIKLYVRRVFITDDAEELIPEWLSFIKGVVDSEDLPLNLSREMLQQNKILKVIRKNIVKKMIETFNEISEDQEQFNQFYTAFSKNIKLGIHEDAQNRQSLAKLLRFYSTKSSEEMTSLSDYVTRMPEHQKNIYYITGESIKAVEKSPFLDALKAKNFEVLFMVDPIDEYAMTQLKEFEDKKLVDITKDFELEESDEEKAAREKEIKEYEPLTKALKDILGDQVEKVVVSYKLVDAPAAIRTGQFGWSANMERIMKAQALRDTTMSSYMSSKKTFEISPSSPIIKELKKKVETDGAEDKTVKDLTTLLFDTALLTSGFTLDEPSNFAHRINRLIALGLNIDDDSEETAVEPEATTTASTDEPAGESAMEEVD
# Sequence of Hexokinase (Q38C41 whole entry): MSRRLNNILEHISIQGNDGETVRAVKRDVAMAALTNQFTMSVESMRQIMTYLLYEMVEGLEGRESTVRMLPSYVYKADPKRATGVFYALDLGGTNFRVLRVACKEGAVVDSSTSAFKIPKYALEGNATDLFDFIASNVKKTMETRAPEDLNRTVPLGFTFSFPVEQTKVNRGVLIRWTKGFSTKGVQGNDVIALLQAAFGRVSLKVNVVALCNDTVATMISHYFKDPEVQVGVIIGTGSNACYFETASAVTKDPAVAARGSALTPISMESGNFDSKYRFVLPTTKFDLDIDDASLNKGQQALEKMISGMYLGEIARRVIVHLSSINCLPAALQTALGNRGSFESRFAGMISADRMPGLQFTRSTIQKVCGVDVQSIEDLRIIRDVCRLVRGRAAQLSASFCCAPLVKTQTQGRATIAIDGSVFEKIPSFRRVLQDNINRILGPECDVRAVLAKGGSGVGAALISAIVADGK
structure (smiles),measurement,setting,value
CCOC(=O)c1c(C)[nH]c(O)c1/C=N/c1ccc(Cl)cc1,IC50,H9c2,13.8 µM (active)
same,Absolute IC50 (XBP1),X-box-binding protein 1,10 µM
same,Absolute IC50 (CHOP),[1],10 µM
O=C(NNC(=S)Nc1ccc(Cl)c(Cl)c1)c1ccccn1,EC50,[2],5.02 µM (active)
same,EC50,[3],> 150 µM (inactive)
same,IC50,Nonstructural protein 1,5.57 µM (active)
same,EC50,[4],> 180 µM (inactive)
same,EC50,Streptococcus,3.32 µM (active)
same,EC50,Hexokinase-1,> 80 µM (inactive)
same,AC50,[5],3.72 µM (active)
same,EC50,[6],0.853 µM (active)
same,AC50,[7],2.33 µM (active)
same,AC50,HEK293,6.08 µM (active)
same,EC50,[8],42 µM (inconclusive)
same,AC50,INS1,1.06 µM (active)
same,EC50,[9],1.53 µM (active)
same,EC50,Hexokinase HKDC1,2.2 µM (active)
same,AC50,[10],2.98 µM (active)
same,EC50,[11],2.3 µM (active)
same,AC50,[12],2.44 µM (active)
same,EC50,cells [13],> 350 µM (not active)
same,EC50,cells [14],10.5 µM (active)
O=c1c2ccc(F)cc2sn1Cc1ccccc1,IC50,Hexokinase,> 25 µM (inactive)
Cc1ccc(C(=O)C(C(=O)/C=C/c2ccccc2)=C2SCCCS2)cc1,EC50,[2],10.3 µM (active)
same,EC50,[15],3.63 µM (active)
same,CC50,Vero [16],> 25 µM (active)
same,AC50,[17],1.24 µM (active)
same,IC50,Vero [18],7.69 µM (active)
same,EC50,[9],0.99 µM (active)
Cc1ccc(Cn2nc(C)c(C(=O)OC(C)C(=O)NCc3ccccc3)c2Cl)cc1 (stereo unspecified),EC50,[19],> 50 µM (inactive)
CCOC(=O)C1=C(C)N=C(C)/C(=C(\O)OCC)C1c1ccc(Br)o1 (stereo unspecified),IC50,[20],2.42 µM (active)
